pEC50, pIC50: −log10 of the molar value.
Key:
PI3Kalpha = PI3Kalpha (Homo sapiens (Human), UniProt P42336); assay: Inhibition of PI3Kalpha-induced PIP-2 phosphorylation (filter-binding assay); type: biochemical; conditions: 33P-ATP
Method: Inhibition of PI3Kalpha-Induced PIP-2 Phosphorylation
Method Type: Filter-Binding-Assay
Aliquoted in desired amounts and stored at −80° C. Final assay concentration 25 ng/well.

mTOR = mTOR (Homo sapiens (Human), UniProt P42345); assay: mTOR kinase activity assay (phosphorylation status of mTOR substrate 4E-BP1; TR-FRET); type: biochemical; conditions: GFP-4E-BP1 substrate, 8 μM ATP
[1] = tested on: U87MG human glioblastoma cell line; assay: CyQuant assay in U87MG cells; type: cell-based; conditions: U-87 MG, 72 h, 3 days incubation
Method: CyQuant Assay in U87MG Cells
3. […] Evaluation • Calculate EC50 using GraphPad Prism (Fifty)

BT474 = BT474 cell assay (EC50); type: cell-based; conditions: Homo sapiens, BT-474; BT474 cells

PI3Kalpha, sequence (P42336 whole entry, species assumed): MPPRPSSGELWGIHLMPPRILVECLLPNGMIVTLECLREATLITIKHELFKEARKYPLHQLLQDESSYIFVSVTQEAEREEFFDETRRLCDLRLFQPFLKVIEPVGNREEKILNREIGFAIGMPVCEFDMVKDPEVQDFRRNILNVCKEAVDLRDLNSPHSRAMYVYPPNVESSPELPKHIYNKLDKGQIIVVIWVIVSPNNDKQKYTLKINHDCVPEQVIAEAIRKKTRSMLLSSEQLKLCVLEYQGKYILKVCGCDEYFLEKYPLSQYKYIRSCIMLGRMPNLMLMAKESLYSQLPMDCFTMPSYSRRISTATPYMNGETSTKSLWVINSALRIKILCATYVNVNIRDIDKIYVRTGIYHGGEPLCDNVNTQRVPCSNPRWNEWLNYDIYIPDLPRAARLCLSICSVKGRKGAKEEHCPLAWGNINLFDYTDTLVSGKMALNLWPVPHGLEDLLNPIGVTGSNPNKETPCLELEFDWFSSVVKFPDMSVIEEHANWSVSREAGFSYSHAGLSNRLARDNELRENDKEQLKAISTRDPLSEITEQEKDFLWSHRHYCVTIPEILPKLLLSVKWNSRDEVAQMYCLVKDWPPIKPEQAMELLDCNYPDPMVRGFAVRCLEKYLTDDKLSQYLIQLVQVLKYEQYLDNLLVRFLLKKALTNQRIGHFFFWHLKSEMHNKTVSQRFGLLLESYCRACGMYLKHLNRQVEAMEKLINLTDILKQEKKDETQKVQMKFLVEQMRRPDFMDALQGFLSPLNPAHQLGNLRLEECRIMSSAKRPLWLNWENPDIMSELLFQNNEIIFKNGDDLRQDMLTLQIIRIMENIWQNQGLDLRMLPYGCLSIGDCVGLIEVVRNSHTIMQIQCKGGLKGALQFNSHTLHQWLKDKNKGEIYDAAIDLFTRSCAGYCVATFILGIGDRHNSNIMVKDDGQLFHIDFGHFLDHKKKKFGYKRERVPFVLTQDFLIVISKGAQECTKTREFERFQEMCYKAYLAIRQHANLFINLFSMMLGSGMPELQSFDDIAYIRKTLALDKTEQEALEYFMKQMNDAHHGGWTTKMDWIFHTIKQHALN
PI3Kalpha, sequence (P27986 whole entry partner, species assumed): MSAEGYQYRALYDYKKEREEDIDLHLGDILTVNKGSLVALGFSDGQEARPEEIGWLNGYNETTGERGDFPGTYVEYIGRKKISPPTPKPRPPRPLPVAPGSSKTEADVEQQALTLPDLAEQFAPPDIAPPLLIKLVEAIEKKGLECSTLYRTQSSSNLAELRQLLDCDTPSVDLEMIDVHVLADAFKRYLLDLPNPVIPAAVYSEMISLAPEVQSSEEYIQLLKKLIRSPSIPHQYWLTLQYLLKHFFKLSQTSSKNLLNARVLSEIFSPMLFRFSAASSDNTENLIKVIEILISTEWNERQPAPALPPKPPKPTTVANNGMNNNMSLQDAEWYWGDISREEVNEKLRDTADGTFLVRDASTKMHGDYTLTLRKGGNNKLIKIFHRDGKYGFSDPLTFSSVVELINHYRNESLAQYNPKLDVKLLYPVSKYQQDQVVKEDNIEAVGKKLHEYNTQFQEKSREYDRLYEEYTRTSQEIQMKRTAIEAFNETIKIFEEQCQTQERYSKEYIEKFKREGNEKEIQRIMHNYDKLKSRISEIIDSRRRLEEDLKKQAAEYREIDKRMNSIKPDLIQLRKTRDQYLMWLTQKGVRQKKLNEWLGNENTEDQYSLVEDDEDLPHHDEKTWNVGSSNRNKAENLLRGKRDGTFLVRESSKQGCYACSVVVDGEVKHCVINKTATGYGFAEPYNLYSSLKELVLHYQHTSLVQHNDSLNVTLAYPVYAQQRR
mTOR, sequence (P42345 1360-2549): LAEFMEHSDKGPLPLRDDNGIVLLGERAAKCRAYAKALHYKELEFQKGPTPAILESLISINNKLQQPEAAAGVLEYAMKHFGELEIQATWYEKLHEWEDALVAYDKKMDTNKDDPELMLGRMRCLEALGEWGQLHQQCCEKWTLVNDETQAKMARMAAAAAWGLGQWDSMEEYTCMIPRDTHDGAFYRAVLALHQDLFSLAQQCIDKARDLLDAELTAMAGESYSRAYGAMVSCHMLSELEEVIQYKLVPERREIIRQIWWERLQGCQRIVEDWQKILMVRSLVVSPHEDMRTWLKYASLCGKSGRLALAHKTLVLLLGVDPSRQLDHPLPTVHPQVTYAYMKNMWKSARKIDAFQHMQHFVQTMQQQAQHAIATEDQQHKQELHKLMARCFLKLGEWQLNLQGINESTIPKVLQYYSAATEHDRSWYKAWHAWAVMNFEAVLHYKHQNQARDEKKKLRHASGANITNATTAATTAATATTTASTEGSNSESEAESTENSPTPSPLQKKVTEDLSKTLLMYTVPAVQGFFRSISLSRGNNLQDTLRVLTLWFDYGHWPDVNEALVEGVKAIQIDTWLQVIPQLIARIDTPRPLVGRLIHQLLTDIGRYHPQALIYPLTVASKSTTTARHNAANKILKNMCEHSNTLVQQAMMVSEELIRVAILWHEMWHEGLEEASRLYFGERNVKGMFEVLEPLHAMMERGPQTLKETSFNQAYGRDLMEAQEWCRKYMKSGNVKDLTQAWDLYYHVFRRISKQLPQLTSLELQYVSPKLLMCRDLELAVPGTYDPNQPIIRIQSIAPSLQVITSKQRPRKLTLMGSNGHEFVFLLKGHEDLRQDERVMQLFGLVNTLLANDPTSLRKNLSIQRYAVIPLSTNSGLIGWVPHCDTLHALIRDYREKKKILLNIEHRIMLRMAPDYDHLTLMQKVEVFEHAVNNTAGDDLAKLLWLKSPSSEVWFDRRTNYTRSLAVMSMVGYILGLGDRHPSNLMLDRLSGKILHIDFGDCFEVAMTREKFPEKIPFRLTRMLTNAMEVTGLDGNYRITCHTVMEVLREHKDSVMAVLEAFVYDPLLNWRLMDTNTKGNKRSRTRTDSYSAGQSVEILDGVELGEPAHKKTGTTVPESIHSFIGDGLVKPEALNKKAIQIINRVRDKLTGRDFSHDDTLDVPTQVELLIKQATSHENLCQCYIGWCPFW

## CCc1ncnc(N2CCCCC2)c1C#Cc1ccc(NC)nc1 [Example H-1]
PI3Kalpha
  IC50 PI3Ka: 214 nM
mTOR
  pIC50: 7.26
[1]
  pEC50: 6.13

## CCc1ncnc(N2CCN(C)C(=O)C2)c1C#Cc1ccc(N)nc1 [Example H-13]
BT474
  pEC50: 7.12
PI3Kalpha
  IC50 PI3Ka: 72 nM
mTOR
  pIC50: 7.43

## CCc1ncnc(N2CCN(CCNS(C)(=O)=O)CC2)c1C#Cc1ccc(N)nc1 [Example H-14]
BT474
  pEC50: 7.20
PI3Kalpha
  IC50 PI3Ka: 60 nM
mTOR
  pIC50: 7.74

## CCc1ncnc(N2CCN(CC(C)O)CC2)c1C#Cc1ccc(N)nc1 (stereo not drawn) [Example H-20]
BT474
  pEC50: 6.86
PI3Kalpha
  IC50 PI3Ka: 152 nM
mTOR
  pIC50: 7.29

## CCc1ncnc(N2CCN(c3ccccn3)CC2)c1C#Cc1ccc(N)nc1 [Example H-21]
BT474
  pEC50: 7.17
PI3Kalpha
  IC50 PI3Ka: 42 nM
mTOR
  pIC50: 7.48

## CCc1ncnc(N2CCN(c3ccncc3)CC2)c1C#Cc1ccc(N)nc1 [Example H-22]
BT474
  pEC50: 6.71
PI3Kalpha
  IC50 PI3Ka: 229 nM
mTOR
  pIC50: 7.31

## CCc1ncnc(N2CCN(c3cccnc3)CC2)c1C#Cc1ccc(N)nc1 [Example H-23]
BT474
  pEC50: 6.86
PI3Kalpha
  IC50 PI3Ka: 48 nM
mTOR
  pIC50: 7.85

## CCc1ncnc(N2CCN(c3ccccc3)CC2)c1C#Cc1ccc(N)nc1 [Example H-24]
BT474
  pEC50: 7.11
PI3Kalpha
  IC50 PI3Ka: 129 nM
mTOR
  pIC50: 7.05

## CCc1ncnc(N2CCN(c3ncccn3)CC2)c1C#Cc1ccc(N)nc1 [Example H-25]
BT474
  pEC50: 7.82
PI3Kalpha
  IC50 PI3Ka: 48 nM
mTOR
  pIC50: 7.85
